From patent publication US20190322676A1, “CERAMIDE GALACTOSYLTRANSFERASE INHIBITORS FOR THE TREATMENT OF DISEASE” (BioMarin Pharmaceutical Inc., priority 2016, published 2019)
Structures can show the parent of a compound that is named as a salt.

target: T1, human CGT (ceramide galactosyltransferase), CHO/CGT lysate (Homo sapiens, UniProt Q16880); test: CGT enzyme assay, RapidFire/MS/MS readout (Table 1 ranges with one asterisk *); type: biochemical; settings: RapidFire method (range with one asterisk *)
T1 construct: Full-length human CGT cDNA was cloned into the BamH1/Xho1 site of pcDNA3.1 (+); expressed in transfected cells; host or cells: Chinese hamster ovary (CHO) cells; lysate prepared with M-PER
T1 sequence (Q16880 21-541): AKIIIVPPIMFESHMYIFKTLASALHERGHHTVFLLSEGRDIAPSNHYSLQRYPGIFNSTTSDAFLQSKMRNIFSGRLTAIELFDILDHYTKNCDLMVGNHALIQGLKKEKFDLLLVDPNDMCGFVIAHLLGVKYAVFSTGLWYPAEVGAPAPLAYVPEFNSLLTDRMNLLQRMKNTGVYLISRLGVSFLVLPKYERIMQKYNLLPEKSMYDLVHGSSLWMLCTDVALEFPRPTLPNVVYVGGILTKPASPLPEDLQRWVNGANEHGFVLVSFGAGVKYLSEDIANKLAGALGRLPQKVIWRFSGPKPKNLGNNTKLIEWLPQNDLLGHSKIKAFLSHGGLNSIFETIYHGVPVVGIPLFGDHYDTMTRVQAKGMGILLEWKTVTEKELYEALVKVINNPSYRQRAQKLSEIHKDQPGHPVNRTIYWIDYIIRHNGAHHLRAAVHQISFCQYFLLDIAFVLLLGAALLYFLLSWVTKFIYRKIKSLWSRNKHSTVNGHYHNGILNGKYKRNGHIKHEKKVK
Method in brief: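 IC50s come from variable-slope dose-response fits of internal-standard-normalized C6-NBD-dihydro-galactosylceramide, measured by RapidFire/MS/MS (ESI negative). Reactions: 1 h, 37 °C, human CGT-expressing CHO lysate (4 μg), 0.001–50 μM compound, 10 μM NBD-dihydro-ceramide, 17.5 μM UDP-galactose, 0.5% DMSO, pH 7.2; 0.01% Tween 80 added for ** values.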

| Compound | IC50 |
| --- | --- |
| NC1CCN(C(=O)[C@@H](NS(=O)(=O)c2ccc3cc(OC4CCCC4)ccc3c2)C(F)(F)c2cccc(-c3ccccc3)c2)CC1 [Compound 69-1, (R)—N-(1-([1,1′-biphenyl]-3-yl)-3-(4-aminopiperidin-1-yl)-1,1-difluoro-3-oxopropan-2-yl)-6-(cyclopentyloxy)naphthalene-2-sulfonamide trifluoroacetate] | 1 to 10 µM |
| CN([C@@H](C(=O)N1C2CCC1CC(N)C2)C(F)(F)c1ccc(Br)cc1)S(=O)(=O)c1ccc2cc(OC3CCCCC3)ccc2c1 (stereo partly drawn) [Compound 37-2, N-((2S)-3-(3-amino-8-azabicyclo[3.2.1]octan-8-yl)-1-(4-bromophenyl)-1,1-difluoro-3-oxopropan-2-yl)-6-(cyclohexyloxy)-N-methylnaphthalene-2-sulfonamide trifluoroacetate] | 30 to 100 µM |
| NC1CCN(C(=O)[C@@H](NS(=O)(=O)c2ccc3c(cnn3CC3CCCC3)c2)C(F)(F)c2ccc(Cl)cc2)CC1 [Compound 99-1, (R)—N-(3-(4-aminopiperidin-1-yl)-1-(4-chlorophenyl)-1,1-difluoro-3-oxopropan-2-yl)-1-(cyclopentylmethyl)-1H-indazole-5-sulfonamide] | 1 to 10 µM |
| NC1CCN(C(=O)[C@@H](NS(=O)(=O)c2ccc(OCC3CCCCC3)cc2)C(F)(F)c2ccc(-c3ccc(Cl)s3)cc2)CC1 [Compound 117-1, (R)—N-(3-(4-aminopiperidin-1-yl)-1-(4-(5-chlorothiophen-2-yl)phenyl)-1,1-difluoro-3-oxopropan-2-yl)-4-(cyclohexylmethoxy)benzenesulfonamide] | 1 to 10 µM |
| COc1cc(C(F)(F)[C@@H](NS(=O)(=O)c2ccc(OCC3CCCCC3)cc2)C(=O)N2CCC(N)CC2)ccc1Cl [Compound 129-2, (S)—N-(3-(4-aminopiperidin-1-yl)-1-(4-chloro-3-methoxyphenyl)-1,1-difluoro-3-oxopropan-2-yl)-4-(cyclohexylmethoxy)benzenesulfonamide] | 10 to 30 µM |
| NC1CCN(C(=O)[C@@H](NS(=O)(=O)c2ccc3cc(OC4CCCC4)ccc3c2)C(F)(F)c2ccc(Cl)cc2)CC1 [Compound 98-1, (R)—N-(3-(4-aminopiperidin-1-yl)-1-(4-chlorophenyl)-1,1-difluoro-3-oxopropan-2-yl)-6-(cyclopentyloxy)naphthalene-2-sulfonamide] | 1 to 10 µM |
| NC1CC2CCC(C1)N2C(=O)[C@H](NS(=O)(=O)c1ccc2cc(OC3CCCC3)ccc2c1)C(F)(F)c1ccc(Cl)cc1 (stereo partly drawn) [Compound 28-2, N-((2S)-3-(3-amino-8-azabicyclo[3.2.1]octan-8-yl)-1-(4-chlorophenyl)-1,1-difluoro-3-oxopropan-2-yl)-6-(cyclopentyloxy)naphthalene-2-sulfonamide trifluoroacetate] | 1 to 10 µM |
| CC(C)Oc1ccc2cc(S(=O)(=O)N[C@H](C(=O)N3C4CCC3CC(N)C4)C(F)(F)c3ccc(-c4ccccc4)cc3)ccc2c1 (stereo partly drawn) [Compound 31-1, N-((2R)-1-([1,1′-biphenyl]-4-yl)-3-(3-amino-8-azabicyclo[3.2.1]octan-8-yl)-1,1-difluoro-3-oxopropan-2-yl)-6-isopropoxynaphthalene-2-sulfonamide trifluoroacetate] | 1 to 10 µM |
| NC1CC2CCC(C1)N2C(=O)[C@H](NS(=O)(=O)c1ccc(OCC2CCCCC2)cc1)C(F)(F)c1ccc(-c2ccc(Cl)s2)cc1 (stereo partly drawn) [Compound 104-2, N-((2S)-3-(3-amino-8-azabicyclo[3.2.1]octan-8-yl)-1-(4-(5-chlorothiophen-2-yl)phenyl)-1,1-difluoro-3-oxopropan-2-yl)-4-(cyclohexylmethoxy)benzenesulfonamide] | 10 to 30 µM |
| CN([C@@H](C(=O)N1CCC(N)CC1)C(F)(F)c1ccc(Oc2ccccc2)cc1)S(=O)(=O)c1ccc(OCC2CCCCC2)cc1 [Compound 64-2, (S)—N-(3-(4-aminopiperidin-1-yl)-1,1-difluoro-3-oxo-1-(4-phenoxyphenyl)propan-2-yl)-4-(cyclohexylmethoxy)-N-methylbenzenesulfonamide] | 10 to 30 µM |
| CCCCOc1cc(C(F)(F)[C@@H](NS(=O)(=O)c2ccc(OCC3CCCCC3)cc2)C(=O)N2CCC(N)CC2)ccc1Cl [Compound 127-2, (S)—N-(3-(4-aminopiperidin-1-yl)-1-(3-butoxy-4-chlorophenyl)-1,1-difluoro-3-oxopropan-2-yl)-4-(cyclohexylmethoxy)benzenesulfonamide] | 1 to 10 µM |
| NC1CCN(C(=O)[C@H](NS(=O)(=O)c2ccc3c(cnn3CC3CCCC3)c2)C(F)(F)c2ccc(-c3ccc(Cl)cc3)cc2)CC1 [Compound 95-2, (S)—N-(3-(4-aminopiperidin-1-yl)-1-(4′-chloro-[1,1′-biphenyl]-4-yl)-1,1-difluoro-3-oxopropan-2-yl)-1-(cyclopentylmethyl)-1H-indazole-5-sulfonamide] | 10 to 30 µM |
| N[C@H]1CCCN(C(=O)[C@H](NS(=O)(=O)c2ccc3cc(OC4CCCC4)ccc3c2)C(F)(F)c2ccc(Br)cc2)C1 [Compound 132-2, N—((S)-3-((S)-3-aminopiperidin-1-yl)-1-(4-bromophenyl)-1,1-difluoro-3-oxopropan-2-yl)-6-(cyclopentyloxy)naphthalene-2-sulfonamide trifluoroacetate] | 10 to 30 µM |
